# Data published in ChEMBL document CHEMBL5506007, “Structure-based discovery of potent CARM1 inhibitors for colorectal cancer therapy” (Eur J Med Chem, 2024).
# Tests used:
# [1] = target: T1, Histone-arginine methyltransferase CARM1 (Homo sapiens, UniProt Q86X55); assay: Inhibition of CARM1 (unknown origin) using histone H3 (21 to 44 residues) and SAM as substrates by AlphaLISA assay
# T1 sequence (Q86X55 whole entry): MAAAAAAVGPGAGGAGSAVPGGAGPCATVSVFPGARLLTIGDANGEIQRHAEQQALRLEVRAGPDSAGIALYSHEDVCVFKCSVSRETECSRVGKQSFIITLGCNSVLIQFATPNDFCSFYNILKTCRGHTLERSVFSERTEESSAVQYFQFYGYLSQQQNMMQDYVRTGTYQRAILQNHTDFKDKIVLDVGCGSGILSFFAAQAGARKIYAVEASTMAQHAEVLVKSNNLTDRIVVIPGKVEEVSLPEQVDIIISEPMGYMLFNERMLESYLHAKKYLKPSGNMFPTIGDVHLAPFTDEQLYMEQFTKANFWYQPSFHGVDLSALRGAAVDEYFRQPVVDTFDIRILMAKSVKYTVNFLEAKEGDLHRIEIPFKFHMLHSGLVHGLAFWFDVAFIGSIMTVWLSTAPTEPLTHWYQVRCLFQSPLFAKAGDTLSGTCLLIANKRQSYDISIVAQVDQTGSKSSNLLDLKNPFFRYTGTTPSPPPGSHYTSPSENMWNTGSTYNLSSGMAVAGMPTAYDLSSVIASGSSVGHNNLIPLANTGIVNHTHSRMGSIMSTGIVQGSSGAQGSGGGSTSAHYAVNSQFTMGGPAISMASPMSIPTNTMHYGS
# [2] = target: Protein arginine N-methyltransferase 1 (Homo sapiens, UniProt Q99873); assay: Inhibition of PRMT1 (unknown origin) by AlphaLISA assay
# Protein arginine N-methyltransferase 1, sequence (Q99873 whole entry): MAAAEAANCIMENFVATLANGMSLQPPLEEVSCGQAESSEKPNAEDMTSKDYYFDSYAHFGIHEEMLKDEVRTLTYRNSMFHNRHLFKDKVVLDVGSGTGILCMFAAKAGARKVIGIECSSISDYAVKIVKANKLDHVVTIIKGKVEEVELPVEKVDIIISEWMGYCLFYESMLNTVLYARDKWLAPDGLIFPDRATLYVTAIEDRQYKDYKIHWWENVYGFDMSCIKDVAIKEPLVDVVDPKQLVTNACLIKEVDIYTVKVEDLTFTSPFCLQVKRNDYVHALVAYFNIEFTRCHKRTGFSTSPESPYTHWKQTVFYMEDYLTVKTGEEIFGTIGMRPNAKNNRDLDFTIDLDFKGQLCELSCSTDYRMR
# HCT-116 [3] = assay: Antiproliferative activity against human HCT-116 cells assessed as inhibition of cell growth by CCK-8 assay; type: functional, cell-based
# in vitro [4] = conditions: mouse, liver microsomes
# Description: Metabolic stability in mouse liver microsomes assessed as half life by LC-MS/MS analysis
# [5] = target: T2, Protein arginine N-methyltransferase 6 (Homo sapiens, UniProt Q96LA8); assay: Inhibition of PRMT6 (unknown origin) by AlphaLISA assay
# T2 sequence (Q96LA8 whole entry): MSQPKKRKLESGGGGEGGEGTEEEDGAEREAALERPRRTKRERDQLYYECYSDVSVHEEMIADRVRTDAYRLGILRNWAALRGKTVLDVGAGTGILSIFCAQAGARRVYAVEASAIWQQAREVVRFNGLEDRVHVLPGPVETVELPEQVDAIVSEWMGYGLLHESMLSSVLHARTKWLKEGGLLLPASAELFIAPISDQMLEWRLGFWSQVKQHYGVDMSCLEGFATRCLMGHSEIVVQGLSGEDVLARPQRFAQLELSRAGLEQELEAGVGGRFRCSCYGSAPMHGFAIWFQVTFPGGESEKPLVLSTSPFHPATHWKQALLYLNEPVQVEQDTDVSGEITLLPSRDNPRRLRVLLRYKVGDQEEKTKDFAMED
# [6] = target: Protein arginine N-methyltransferase 5 (Homo sapiens, UniProt O14744); assay: Inhibition of PRMT5 (unknown origin) by AlphaLISA assay
# Protein arginine N-methyltransferase 5, sequence (O14744 whole entry): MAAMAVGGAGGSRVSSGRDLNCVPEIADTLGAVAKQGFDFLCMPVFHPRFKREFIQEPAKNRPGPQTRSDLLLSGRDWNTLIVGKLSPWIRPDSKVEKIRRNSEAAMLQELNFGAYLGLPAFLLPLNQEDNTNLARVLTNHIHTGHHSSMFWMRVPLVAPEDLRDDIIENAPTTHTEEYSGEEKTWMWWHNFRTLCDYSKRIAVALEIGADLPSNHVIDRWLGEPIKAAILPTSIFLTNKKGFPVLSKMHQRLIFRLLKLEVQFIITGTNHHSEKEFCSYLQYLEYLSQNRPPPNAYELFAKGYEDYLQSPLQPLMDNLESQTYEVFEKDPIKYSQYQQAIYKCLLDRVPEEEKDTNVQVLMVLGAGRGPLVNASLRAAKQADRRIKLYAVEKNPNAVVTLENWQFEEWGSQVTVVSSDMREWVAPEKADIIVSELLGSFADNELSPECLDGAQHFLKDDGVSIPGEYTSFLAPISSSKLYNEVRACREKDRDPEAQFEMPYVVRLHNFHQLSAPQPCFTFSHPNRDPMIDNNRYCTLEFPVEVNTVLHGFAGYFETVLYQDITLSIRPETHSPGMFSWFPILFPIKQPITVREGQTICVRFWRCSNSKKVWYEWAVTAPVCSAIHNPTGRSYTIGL
# HCT-116 [7] = assay: Induction of apoptosis in human HCT-116 cells assessed as dead cells at 0.63 uM measured after 72 hrs by Annexin V-FITC/PI staining based flow cytometry analysis (reference value: 1.07%); type: functional
# HCT-116 [8] = assay: Induction of apoptosis in human HCT-116 cells assessed as late apoptotic cells at 2.5 uM measured after 72 hrs by Annexin V-FITC/PI staining based flow cytometry analysis (reference value: 1.53%); type: functional
# HCT-116 [9] = assay: Induction of apoptosis in human HCT-116 cells assessed as late apoptotic cells at 1.25 uM measured after 72 hrs by Annexin V-FITC/PI staining based flow cytometry analysis (reference value: 1.53%); type: functional
# HCT-116 [10] = assay: Induction of apoptosis in human HCT-116 cells assessed as late apoptotic cells at 0.63 uM measured after 72 hrs by Annexin V-FITC/PI staining based flow cytometry analysis (reference value: 1.53%); type: functional
# in vitro [11] = conditions: mouse, liver microsomes; remark: listed apart in the source
# Description: Metabolic stability in mouse liver microsomes assessed as intrinsic clearance by LC-MS/MS analysis
# HCT-116 [12] = assay: Induction of apoptosis in human HCT-116 cells assessed as late apoptotic cells at 5 uM measured after 72 hrs by Annexin V-FITC/PI staining based flow cytometry analysis (reference value: 1.53%); type: functional
# HCT-116 [13] = assay: Induction of apoptosis in human HCT-116 cells assessed as dead cells at 2.5 uM measured after 72 hrs by Annexin V-FITC/PI staining based flow cytometry analysis (reference value: 1.07%); type: functional
# HCT-116 [14] = assay: Potency index, ratio of GSK3368715 IC50 to test compound IC50 for antiproliferative activity against human HCT-116 cells assessed as inhibition of cell growth by CCK-8 assay; type: functional
# in vitro [15] = conditions: mouse, liver microsomes; remark: listed apart in the source
# Description: Metabolic stability in mouse liver microsomes assessed as microsomal intrinsic clearance by LC-MS/MS analysis
# [16] = target: T3, Protein arginine N-methyltransferase 8 (Homo sapiens, UniProt Q9NR22); assay: Inhibition of PRMT8 (unknown origin) by AlphaLISA assay
# T3 sequence (Q9NR22 whole entry): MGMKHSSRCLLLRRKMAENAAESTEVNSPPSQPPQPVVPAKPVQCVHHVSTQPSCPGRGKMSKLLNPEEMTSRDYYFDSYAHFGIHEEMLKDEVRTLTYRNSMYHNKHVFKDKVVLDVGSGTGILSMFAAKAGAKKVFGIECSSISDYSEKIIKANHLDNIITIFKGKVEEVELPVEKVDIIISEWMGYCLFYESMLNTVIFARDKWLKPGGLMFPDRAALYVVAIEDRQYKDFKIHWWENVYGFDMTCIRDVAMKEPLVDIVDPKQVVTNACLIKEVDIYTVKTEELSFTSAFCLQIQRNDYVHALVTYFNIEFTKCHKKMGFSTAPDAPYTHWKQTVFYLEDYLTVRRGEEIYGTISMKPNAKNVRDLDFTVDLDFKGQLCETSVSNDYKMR
# [17] = target: Protein arginine N-methyltransferase 3 (Homo sapiens, UniProt O60678); assay: Inhibition of PRMT3 (unknown origin) by AlphaLISA assay
# Protein arginine N-methyltransferase 3, sequence (O60678 whole entry): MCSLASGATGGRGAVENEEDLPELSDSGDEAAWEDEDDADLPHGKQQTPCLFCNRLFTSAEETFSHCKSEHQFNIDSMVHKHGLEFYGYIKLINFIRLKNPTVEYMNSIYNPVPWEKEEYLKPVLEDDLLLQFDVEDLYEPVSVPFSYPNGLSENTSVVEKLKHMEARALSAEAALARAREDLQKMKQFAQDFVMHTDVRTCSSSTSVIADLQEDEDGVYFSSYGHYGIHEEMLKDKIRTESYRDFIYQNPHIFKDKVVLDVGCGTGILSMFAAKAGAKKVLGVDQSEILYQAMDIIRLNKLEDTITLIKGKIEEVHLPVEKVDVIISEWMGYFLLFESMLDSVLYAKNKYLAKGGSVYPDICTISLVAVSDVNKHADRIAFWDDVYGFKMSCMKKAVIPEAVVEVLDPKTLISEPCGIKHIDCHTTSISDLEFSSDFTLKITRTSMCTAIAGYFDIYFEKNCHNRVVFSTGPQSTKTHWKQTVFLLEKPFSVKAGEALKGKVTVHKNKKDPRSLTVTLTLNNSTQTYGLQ
# HCT-116 [18] = assay: Induction of apoptosis in human HCT-116 cells assessed as dead cells at 1.25 uM measured after 72 hrs by Annexin V-FITC/PI staining based flow cytometry analysis (reference value: 1.07%); type: functional
# HCT-116 [19] = assay: Induction of apoptosis in human HCT-116 cells assessed as dead cells at 5 uM measured after 72 hrs by Annexin V-FITC/PI staining based flow cytometry analysis (reference value: 1.07%); type: functional
# [20] = target: T1, Histone-arginine methyltransferase CARM1; assay: Inhibition of N-terminal FLAG tagged human PRMT4 (2 to end residues) expressed in FreeStyle 293-F cells using SAM and rHistone H3.1 as substrate preincubated for 60 mins followed by substrate addition and measured after 40 mins by Topcount reader based analysis
# [21] = target: T3, Protein arginine N-methyltransferase 8; assay: Inhibition of PRMT8 (unknown origin) using SAM and Histone (1 to 21 residues) as substrate preincubated for 60 mins followed by substrate addition and measured after 40 mins by Topcount reader based analysis
# [22] = target: T2, Protein arginine N-methyltransferase 6; assay: Inhibition of N-terminal His tagged human recombinant PRMT6 (2 to 375 residues) expressed in Escherichia coli using SAM and Histone (1 to 21 residues) as substrate preincubated for 60 mins followed by substrate addition and measured after 40 mins by Topcount reader based analysis
# [23] = target: T1, Histone-arginine methyltransferase CARM1; assay: Inhibition of CARM1 (unknown origin)
Structure (SMILES),IC50 [1] [nM],IC50 [2] [nM],IC50 (HCT-116 [3]) [nM],half-life (in vitro [4]) [h],IC50 [5] [nM],IC50 [6] [nM],CLint scaled (in vitro [11]) [mL/min/kg],Ratio IC50 (HCT-116 [14]),microsomal CLint (in vitro [15]) [µL/min/mg],IC50 [16] [nM],IC50 [17] [nM],other results
CCOCC1(COCC)CCC(Oc2ccccc2CN(C)C[C@H](O)CNC)CC1,37,281,–,–,–,–,–,–,–,–,–,–
CCOCC1(COCC)CCC(Oc2ccccc2CN(C)C[C@@H](O)CNC)CC1,9,56,3130,3.62,10,> 100000,25.3,>10,6.4,31,2640,Activity (HCT-116 [7]): 1.32%; Activity (HCT-116 [8]): 2.13%; Activity (HCT-116 [9]): 1.09%; Activity (HCT-116 [10]): 0.87%; Activity (HCT-116 [12]): 1.3%; Activity (HCT-116 [13]): 1.52%; Activity (HCT-116 [18]): 1.83%; Activity (HCT-116 [19]): 2.14%
CNCCN(C)Cc1ccccc1OC1CCC(COC)(COC)CC1.Cl.Cl,7,56,2960,0.76,12,> 100000,120,>10,30.4,24,493,–
CCOCC1(COCC)CCC(c2n[nH]cc2CN(C)CCNC)CC1,12,–,38200,–,–,–,–,–,–,–,–,IC50 [20]: 1.7 nM; IC50 [21]: 1.7 nM; IC50 [22]: 1.7 nM
CNCCN1CCC(c2ccc3c(F)c(-c4ccccc4OC)[nH]c3c2)CC1,–,–,–,–,–,–,–,–,–,–,–,IC50 [23]: 30 nM
